Source: publication PMC4459817, “Vasculotide reduces endothelial permeability and tumor cell extravasation in the absence of binding to or agonistic activation of Tie2” (EMBO Molecular Medicine, 2015)

System: residual and metastatic LM2-4luc disease after resection
Assay: orthotopic LM2-4luc xenografts with surgical resection of primary tumor (adjuvant setting)
Format: in vivo, human LM2-4luc cells in CB-17 SCID mice
Description: A second orthotopic implantation experiment involved surgical resection of primary LM2-4^luc tumors (∽400 mm^3) at 17DPI (Fig6) to model post-operative metastases arising from minimal residual disease (MRD). MRD includes the regrowth of incompletely resected mammary tumors, as well as circulating or disseminated tumor cells released from primary tumors prior to or at the time of surgical resection. VT was initiated 6 days prior to surgery and maintained chronically, while adjuvant SU (1-week or 3-week 60 mg/kg/day) treatments were initiated 1 day post-surgery (Fig6A).
In vivo experiments were performed in strict accordance with protocols approved by the Sunnybrook Research Institute Animal Care Committee, accredited by the Canadian Council of Animal Care. All surgical, imaging, and euthanasia procedures were performed under inhaled isoflurane anesthesia. Experimental metastasis models involved injections of 10^6 tumor cells, suspended in 200 μl serum-free DMEM, into the mouse tail vein. LM2-4^luc implantations were performed on 6 to 8-week-old female CB-17 SCID mice (Charles River Canada). HT29^luc implantations were performed on 19- to 20-week-old male and 11- to 12-week-old female YFP-SCID mice (bred in-house). SN12^luc implantations were performed on 9-week-old male YFP-SCID mice. Spontaneous metastasis models involved orthotopic implantations of 2 × 10^6 LM2-4^luc cells/50 μl serum-free DMEM in the right inguinal mammary fat pads of 6-week-old female CB-17 SCID mice.
Sunitinib malate (SU), from Pfizer or LC Laboratories, and its vehicle were formulated as described before (Ebos et al, [2009]). SU was administered by oral gavage (PO), once daily, at a dose of 60 mg/kg mouse weight. Vasculotide (VT): VT synthesized at the Sunnybrook Research Institute (Toronto, ON, Canada) was used in experiments described in Fig2(A–D) and Supplementary Fig S5(A and B). VT synthesized by American Peptide (Sunnyvale, CA, USA) was used in experiments described in Fig5. VT synthesized by Bachem UK Ltd was used in experiments described in Figs1, 2(E–H), 3, 4, 6–9, Supplementary Figs S2, and S5(C and D). Lyophilized product was reconstituted in PBS to 500 μg/500 μl stock aliquots and stored at −80°C. As needed, stock aliquots were diluted with PBS to a 250 ng/50 μl working concentration and stored in 0.4–1 ml aliquots at −80°C. VT (at a standard dose of 250 ng/mouse) or its vehicle (PBS) was administered to mice by intraperitoneal (IP) injections every other day.
5. Bioluminescence imaging (BI) of tumor burden
For in vivo BI: Mice were injected intraperitoneally with 150mg/kg luciferin (Promega) 10 minutes prior to and anesthetized with isofluorane just before luminescent pseudocolor imaging (uniform settings: CCD camera locked at -105 °C, exposure=60s, f/1, subject size=1.5cm, bin=8, FOV=23.2cm, full image correction) using the IVIS 200 Imaging System (Caliper/PerkinElmer). Using the Living Image software (v2.50.1, Xenogen), weekly images were analyzed under uniform color range on grayscale photographic overlay. Total fluxes (photons/sec) were quantified within consistent regions of interest and statistically compared ideally at a timepoint before any deaths have occurred.
For ex vivo BI: Mice were sacrificed at 7 mins after luciferin injections, then organs of interest were dissected and individually placed within 24-well plates for imaging at 10 min post-luciferin injection.
6. Immunohistochemical (IHC) analysis of lung metastases […]

Row | Compound | thoracic metastases benefit (10 days after discontinuation of 1-week SU, Fig6C) | abdominal tumor growth vs. thoracic metastatic dissemination (adjuvant SU, Fig6C, D) | tumor bioluminescence, VT combined with 1-wk SU (Fig6C and D) | survival advantage (VT monotherapy, Plog-rank = 0.42, Fig6A) | thoracic metastatic dissemination vs. abdominal tumor growth (thoracic P = 0.04, abdominal P > 0.05 for VT, Fig6C, D)
1 | CCN(CC)CCNC(=O)c1c(C)[nH]c(/C=C2\C(=O)Nc3ccc(F)cc32)c1C [sunitinib, reference compound] | no benefit was observed with respect to thoracic metastases | more effective at inhibiting abdominal tumor growth (Fig6D) than thoracic metastatic dissemination | – | – | –
2 | CHHHRHSF [Vasculotide, 4-armed maleimide-functionalized polyethylene glycol (PEG) backbone to link together four cysteine-capped T7 peptides, that is, CHHHRHSF] | – | – | lowered tumor bioluminescence to a similar extent as 3-wk SU monotherapy | not statistically significant | more effective at inhibiting thoracic metastatic dissemination (Fig6C, P = 0.04) than abdominal tumor growth (Fig6D, P > 0.05)
